This assay concerns the target RIPK1 (recombinant GST-RIPK1 kinase domain, residues 1-327) (Homo sapiens (Human), UniProt Q13546). Description: RIPK1-ADP-Glo Enzymatic Assay. It is filed as biochemical. The note with it: 25 nM GST-RIPK1, 300 μM ATP, 3 μM dephosphorylated-MBP; 30 minutes pre-incubation, 150 minutes reaction; ten-point titration. Summed up:
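GST-tagged RIPK1 (25 nM) was preincubated 30 min with compound at ambient temperature in HEPES pH 7.3 buffer, then run 150 min with 300 μM ATP and 3 μM dephosphorylated MBP. ADP was read by ADP-Glo luminescence. EC50 came from 10-point, 1:3 titrations (top 100000 nM, 1% DMSO) fitted to a four-parameter model.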

For 17 molecules, IC50 results are on record in patent US20240208986A1, “PHENYL AZEPINES AS RIPK1 INHIBITORS AND METHODS OF USE THEREOF” (Merck Sharp & Dohme LLC, priority 2021, published 2024).

Chain of RIPK1 (recombinant GST-RIPK1 kinase domain, residues 1-327) (Q13546 1-327): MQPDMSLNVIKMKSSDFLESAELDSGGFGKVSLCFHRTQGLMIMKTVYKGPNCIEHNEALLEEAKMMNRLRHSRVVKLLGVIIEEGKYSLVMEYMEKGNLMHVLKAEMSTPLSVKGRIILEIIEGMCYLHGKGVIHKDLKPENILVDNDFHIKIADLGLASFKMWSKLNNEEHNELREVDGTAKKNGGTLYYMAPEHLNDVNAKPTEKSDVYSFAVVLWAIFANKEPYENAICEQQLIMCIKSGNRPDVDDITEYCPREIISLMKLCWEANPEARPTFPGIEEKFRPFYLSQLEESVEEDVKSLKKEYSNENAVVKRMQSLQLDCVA

What is called IC50 is the concentration needed to halve the response being measured. As for `CC(C)(C(=O)N1C[C@@H]2C[C@H]1c1cc(F)cc(Cl)c1O2)C(F)F` [Compound 2-24, 1-[(2S,5S)-9-chloro-7-fluoro-2,3-dihydro-2,5-methano-1,4-benzoxazepin-4(5H)-yl]-3,3-difluoro-2,2-dimethylpropan-1-one], the IC50 was found to be 30 nM.

Consider `N#Cc1cc(F)cc2c1O[C@H]1C[C@@H]2N(C(=O)C23CCC(F)(CC2)C3)C1` [Compound 2-25, (2S,5S)-7-fluoro-4-(4-fluorobicyclo[2.2.1]heptane-1-carbonyl)-2,3,4,5-tetrahydro-2,5-methano-1,4-benzoxazepine-9-carbonitrile], for which the IC50 is 10 nM.

On to `CC(C)(C(=O)N1C[C@@H]2C[C@H]1c1cc(F)cc(F)c1O2)C(F)F` [Compound 2-26, 1-[(2S,5S)-7,9-difluoro-2,3-dihydro-2,5-methano-1,4-benzoxazepin-4(5H)-yl]-3,3-difluoro-2,2-dimethylpropan-1-one], for which the IC50 is 12 nM.

For the molecule `CC(C)(CC#N)C(=O)N1C[C@@H]2C[C@H]1c1cc(F)cc(F)c1O2` [Compound 2-27, 4-[(2S,5S)-7,9-difluoro-2,3-dihydro-2,5-methano-1,4-benzoxazepin-4(5H)-yl]-3,3-dimethyl-4-oxobutanenitrile], the IC50 stood at 16 nM.

For the molecule `N#CCC1(C(=O)N2C[C@@H]3C[C@H]2c2cccc(F)c2O3)CCC1` [Compound 2-28, {1-[(2S,5S)-9-fluoro-2,3-dihydro-2,5-methano-1,4-benzoxazepine-4(5H)-carbonyl]cyclobutyl} acetonitrile], the IC50 worked out at 809 nM.

Turning to `CC1(C(=O)N2C[C@@H]3C[C@H]2c2cc(F)ccc2O3)CC(C#N)C1` (stereo partly drawn) [Compound 2-29, 3-((2S,5S)-7-fluoro-2,3,4,5-tetrahydro-2,5-methanobenzo[f][1,4]oxaze-pine-4-carbonyl)-3-methylcyclobutane-1-carbonitrile], the IC50 was determined as 55 nM.

Regarding `CC1(C(=O)N2C[C@@H]3C[C@H]2c2cccc(F)c2O3)CC(C#N)C1` (stereo partly drawn) [Compound 2-30, 3-((2S,5S)-9-fluoro-2,3,4,5-tetrahydro-2,5-methanobenzo[f][1,4]oxaze-pine-4-carbonyl)-3-methylcyclobutane-1-carbonitrile], the IC50 amounted to 75 nM.

With `C[C@@H]1[C@@H]2C[C@@H](c3ccccc3O2)N1C(=O)C(C)(C)C` [Compound 2-31, 2,2-dimethyl-1-((2S,3R,5S)-3-methyl-2,3-dihydro-2,5-methanobenzo[f][1,4]oxaze-pin-4(5H)-yl)propan-1-one], the IC50 was 132 nM.

Take `O=C(N1C[C@@H]2C[C@H]1c1cc(Cl)ccc1O2)C12CCC(F)(CC1)C2` [Compound 2-32, ((2S,5S)-7-chloro-2,3-dihydro-2,5-methanobenzo[f][1,4]oxaze-pin-4(5H)-yl)(4-fluorobicyclo[2.2.1]heptan-1-yl)methanone]: the IC50 came out at 39 nM.

With `O=C(N1C[C@@H]2C[C@H]1c1ccc(Cl)cc1O2)C12CCC(F)(CC1)C2` [Compound 2-33, ((2S,5S)-8-chloro-2,3-dihydro-2,5-methanobenzo[f][1,4]oxaze-pin-4(5H)-yl)(4-fluorobicyclo[2.2.1]heptan-1-yl)methanone], the IC50 was found to be 26 nM.

Regarding `N#Cc1ccnc(N2CCC(F)(C(=O)N3C[C@@H]4C[C@H]3c3cc(F)cc(F)c3O4)CC2)n1` [Compound 2-34, 2-(4-((2S,5S)-7,9-difluoro-2,3,4,5-tetrahydro-2,5-methanobenzo[f][1,4]oxaze-pine-4-carbonyl)-4-fluoropiperidin-1-yl)pyrimidine-4-carbonitrile], the IC50 amounted to 27 nM.

In the case of `O=C(N1C[C@@H]2C[C@H]1c1cc(F)cc(F)c1O2)C12CCC(F)(CC1)C2` [Compound 2-35, ((2S,5S)-7,9-difluoro-2,3-dihydro-2,5-methanobenzo[f][1,4]oxaze-pin-4(5H)-yl)(4-fluorobicyclo[2.2.1]heptan-1-yl)methanone], the IC50 came out at 12 nM.

Take `N#CC12CCC(C(=O)N3C[C@@H]4C[C@H]3c3cc(F)cc(F)c3O4)(C1)C2` [Compound 2-36, 4-((2S,5S)-7,9-difluoro-2,3,4,5-tetrahydro-2,5-methanobenzo[f][1,4]oxaze-pine-4-carbonyl)bicyclo[2.1.1] hexane-1-carbonitrile]: the IC50 is 19 nM.

With `CC(C)(C)C(=O)N1C[C@H]2Cc3ccccc3[C@@H]1C2` [Compound 3-2, 2,2-dimethyl-1-((1S,4S)-1,3,4,5-tetrahydro-2H-1,4-methanobenzo[c]azepin-2-yl)propan-1-one], the IC50 was determined as 2240 nM.

`CC(C)(CC#N)C(=O)N1C[C@H]2Cc3ccccc3[C@@H]1C2` [Compound 3-3, 3,3-dimethyl-4-oxo-4-((1S,4S)-1,3,4,5-tetrahydro-2H-1,4-methanobenzo[c]azepin-2-yl)butanenitrile]: the IC50 turned out to be 1490 nM.

For the molecule `CC(C)(C)C(=O)N1C[C@]2(C)C[C@H]1c1ccccc1O2` [Compound 3-5, 2,2-dimethyl-1-((2S,5S)-2-methyl-2,3-dihydro-2,5-methanobenzo[f][1,4]oxaze-pin-4(5H)-yl)propan-1-one], the IC50 was determined as 17800 nM.

Regarding `CC(C)(C(=O)N1C[C@]2(C)C[C@H]1c1ccccc1O2)C(F)F` [Compound 3-6, 3,3-difluoro-2,2-dimethyl-1-((2S,5S)-2-methyl-2,3-dihydro-2,5-methanobenzo[f][1,4]oxaze-pin-4(5H)-yl)propan-1-one], the IC50 amounted to 14700 nM.
